From ChEMBL document CHEMBL4152225, “Dual-tail arylsulfone-based benzenesulfonamides differently match the hydrophobic and hydrophilic halves of human carbonic anhydrases active sites: Selective inhibitors for the tumor-associated hCA IX isoform” (Eur J Med Chem, 2018)

How the values were obtained:
[1] = biological target: Carbonic anhydrase 9 (Homo sapiens, UniProt Q16790); experiment: Inhibition of recombinant human carbonic anhydrase 9 assessed as inhibition of CO2 hydration preincubated for 15 mins prior to testing by phenol red based stopped-flow assay
[2] = system: MDA-MB-231; experiment: Cytotoxicity against human MDA-MB-231 cells under hypoxic condition by MTT assay
[3] = system: MCF7; experiment: Cytotoxicity against human MCF7 cells under hypoxic condition by MTT assay

SMILES | Ki [1] | IC50 [2] | IC50 [3]
Cc1ccc(S(=O)(=O)C/C(=N\Nc2ccc(S(N)(=O)=O)cc2)c2ccccc2)cc1 | 39.5 nM |  | 
Cc1ccc(/C(CS(=O)(=O)c2ccc(C)cc2)=N/Nc2ccc(S(N)(=O)=O)cc2)cc1 | 5.3 nM | 5140 nM | 2330 nM
COc1cccc2c1C(=O)c1c(O)c3c(c(O)c1C2=O)C[C@@](O)(C(=O)CO)C[C@@H]3O[C@H]1C[C@H](N)[C@H](O)[C@H](C)O1 [DOXORUBICIN] |  |  | 370 nM
NS(=O)(=O)c1ccc(N/N=C(\CS(=O)(=O)c2ccccc2)c2ccc3ccccc3c2)cc1 | 39.3 nM |  | 
NS(=O)(=O)c1ccc(N/N=C(\CS(=O)(=O)c2ccccc2)c2ccc([N+](=O)[O-])cc2)cc1 | 71.6 nM |  | 
Cc1ccc(S(=O)(=O)C/C(=N\Nc2ccc(S(N)(=O)=O)cc2)c2ccc(Cl)cc2)cc1 | 8.7 nM | 18200 nM | 3900 nM
NS(=O)(=O)c1ccc(N/N=C(\CS(=O)(=O)c2ccccc2)c2ccc(Br)cc2)cc1 | 61.2 nM |  | 
Cc1ccc(S(=O)(=O)C/C(=N\Nc2ccc(S(N)(=O)=O)cc2)c2ccsc2)cc1 | 56.3 nM |  | 
Cc1ccc(S(=O)(=O)C/C(=N\Nc2ccc(S(N)(=O)=O)cc2)c2ccc([N+](=O)[O-])cc2)cc1 | 79.2 nM |  | 

The remaining compounds from weak to strong by Ki [1], led by results:

Ki [1] | SMILES | IC50 [2] | IC50 [3]
132 nM | NS(=O)(=O)c1ccc(N/N=C(\CS(=O)(=O)c2ccccc2)c2ccc(-c3ccccc3)cc2)cc1 |  | 
79.3 nM | NS(=O)(=O)c1ccc(N/N=C(\CS(=O)(=O)c2ccccc2)c2ccco2)cc1 |  | 
69.1 nM | NS(=O)(=O)c1ccc(N/N=C(\CS(=O)(=O)c2ccccc2)c2cc3ccccc3o2)cc1 |  | 
56.1 nM | Cc1ccc(S(=O)(=O)C/C(=N\Nc2ccc(S(N)(=O)=O)cc2)c2ccc(Br)cc2)cc1 |  | 
36.5 nM | Cc1ccc(/C(CS(=O)(=O)c2ccccc2)=N/Nc2ccc(S(N)(=O)=O)cc2)cc1 |  | 
34.8 nM | NS(=O)(=O)c1ccc(N/N=C(\CS(=O)(=O)c2ccccc2)c2ccc(Cl)cc2)cc1 |  | 
27.6 nM | Cc1ccc(S(=O)(=O)C/C(=N\Nc2ccc(S(N)(=O)=O)cc2)c2ccc(F)cc2)cc1 |  | 
15.3 nM | Cc1ccc(S(=O)(=O)C/C(=N\Nc2ccc(S(N)(=O)=O)cc2)c2ccc3ccccc3c2)cc1 |  | 
7.5 nM | NS(=O)(=O)c1ccc(N/N=C(\CS(=O)(=O)c2ccccc2)c2ccc(F)cc2)cc1 |  | 
